From patent US10561642B2, “Treatment of Zika virus infections using alpha-glucosidase inhibitors” (FLORIDA STATE UNIVERSITY RESEARCH FOUNDATION, INC., priority 2016, dated 2020)

Tests used:
[1] = system: Japanese encephalitis virus; conditions: compared with Dengue virus; cited from earlier work
[2] = system: Japanese encephalitis virus; conditions: upon treatment; cited from earlier work
[3] = system: FSS-13025 strain of ZIKV; test: Anti-ZIKV activity in SNB-19 cells, ZIKV NS1 expression by Western blot; format: cell-based, Zika virus; conditions: 100 μm, 500 μm and 1 mM, treated one hour prior to inoculation (MOI=1), harvested 24 hours post-infection
Description: FIG. 1. Castanospermine as anti-ZIKV compound. Castanospermine was screened for antiviral activity against ZIKV infection. Glioblastoma SNB-19 cells were treated with castanospermine at the indicated concentrations one hour prior to inoculation with the FSS-13025 strain of ZIKV (at MOI=1). Cells were harvested 24 hours post-infection and analyzed by Western blot for ZIKV-NS1 or GAPDH.
Cells of the glioblastoma SNB-19 cell line were maintained at 37° C. in 5% CO2 in […], 1× penicillin/streptomycin, and 10% fetal bovine serum (Invitrogen). SNB-19 cells were treated with castanospermine at increasing concentrations (100 μm, 500 μm, and 1 mM) one hour prior to inoculation with the FSS-13025 strain of ZIKV. Cells were harvested 24 hours post-infection and analyzed by Western blot for ZIKV-NS1 or GAPDH.

Row | Structure (SMILES) | Effect on cell infection by Japanese encephalitis virus [1] | Mortality rate among mice given a lethal dose of Japanese encephalitis virus [2] | Inhibition of ZIKV infection (ZIKV protein NS1 expression) [3]
1 | CCCCCCCCCN1C[C@H](O)[C@@H](O)[C@H](O)[C@H]1CO [NN-DNJ, N-nonyl-deoxynojirimycin] | suppressed cell infection but to a lesser extent than with Dengue virus | decreased mortality rate | 
2 | O[C@H]1[C@H](O)[C@@H](O)CN2CC[C@H](O)[C@H]12 [castanospermine, (1S,6S,7R,8aR)-Tetrahydroxyoctahydroindolizine] |  |  | significantly inhibit ZIKV infection
